Measured values reported in ChEMBL document CHEMBL1909046, “DrugMatrix in vitro pharmacology data”.
Where a SMILES comes first, the peptide text is derived from it. Bridges are numbered along the chain shown (N, C = ends). [ ]: non-standard residue; d: D form. The star is where a group is joined. Threoninol(2S,3R) = C[C@@H](O)[C@H](CO)N*

Columns and labels:
[1] = molecular target: Matrix metalloproteinase-9 (Homo sapiens, UniProt P14780); experiment: biochemical; assay type: cell-based;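 further: inhibition of isolated MMP-9 enzyme activity toward a synthetic peptide substrate, from the DrugMatrix protease screening panel; in other assays of this panel Not Active means under 50% inhibition at 10 µM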
Matrix metalloproteinase-9, sequence (P14780 whole entry): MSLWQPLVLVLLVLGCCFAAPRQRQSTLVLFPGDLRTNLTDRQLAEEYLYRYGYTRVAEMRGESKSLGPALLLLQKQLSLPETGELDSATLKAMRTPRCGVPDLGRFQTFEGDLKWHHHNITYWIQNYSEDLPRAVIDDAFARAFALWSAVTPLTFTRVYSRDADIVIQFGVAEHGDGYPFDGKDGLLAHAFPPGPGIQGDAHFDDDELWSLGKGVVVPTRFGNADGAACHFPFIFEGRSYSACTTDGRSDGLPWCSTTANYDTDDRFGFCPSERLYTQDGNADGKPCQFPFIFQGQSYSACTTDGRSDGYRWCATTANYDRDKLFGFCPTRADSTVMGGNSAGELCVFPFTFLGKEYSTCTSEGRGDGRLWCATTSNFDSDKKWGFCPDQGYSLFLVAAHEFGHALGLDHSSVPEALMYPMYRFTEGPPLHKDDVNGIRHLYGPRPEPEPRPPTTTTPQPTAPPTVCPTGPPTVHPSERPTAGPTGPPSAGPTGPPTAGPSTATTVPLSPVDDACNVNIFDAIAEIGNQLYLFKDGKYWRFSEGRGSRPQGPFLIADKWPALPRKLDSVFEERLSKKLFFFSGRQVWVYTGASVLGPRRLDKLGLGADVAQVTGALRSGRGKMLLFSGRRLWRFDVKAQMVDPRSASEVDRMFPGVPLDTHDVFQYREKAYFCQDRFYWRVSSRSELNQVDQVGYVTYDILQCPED

[2] = molecular target: T1, Alpha-1B adrenergic receptor (Rattus norvegicus, UniProt P15823); experiment: DRUGMATRIX: Alpha-1B adrenergic receptor radioligand binding (ligand: prazosin); assay type: cell membranes, Wistar, Liver, Membrane; details: Not Active = under 50% inhibition at 10 µM
T1 sequence (P15823 whole entry): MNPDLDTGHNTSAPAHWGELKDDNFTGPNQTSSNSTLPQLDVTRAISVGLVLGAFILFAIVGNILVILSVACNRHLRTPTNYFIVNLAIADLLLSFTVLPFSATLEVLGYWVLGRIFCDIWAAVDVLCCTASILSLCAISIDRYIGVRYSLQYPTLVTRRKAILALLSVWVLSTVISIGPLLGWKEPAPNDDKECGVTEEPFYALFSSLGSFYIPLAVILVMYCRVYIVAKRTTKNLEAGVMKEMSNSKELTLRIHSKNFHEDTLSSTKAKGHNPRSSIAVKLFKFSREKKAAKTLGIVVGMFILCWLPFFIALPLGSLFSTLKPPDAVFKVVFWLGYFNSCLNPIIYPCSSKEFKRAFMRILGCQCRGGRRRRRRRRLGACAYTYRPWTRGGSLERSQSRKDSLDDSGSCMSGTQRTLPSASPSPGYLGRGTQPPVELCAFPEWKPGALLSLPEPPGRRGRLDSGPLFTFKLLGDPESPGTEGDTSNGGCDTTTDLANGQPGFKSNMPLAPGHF

[3] = molecular target: Sodium-dependent dopamine transporter (Homo sapiens, UniProt Q01959); experiment: DRUGMATRIX: Dopamine Transporter radioligand binding (ligand: [125I] RTI-55); assay type: cell membranes, CHO-K1, Membrane; details: Not Active = under 50% inhibition at 10 µM
Sodium-dependent dopamine transporter, sequence (Q01959 whole entry): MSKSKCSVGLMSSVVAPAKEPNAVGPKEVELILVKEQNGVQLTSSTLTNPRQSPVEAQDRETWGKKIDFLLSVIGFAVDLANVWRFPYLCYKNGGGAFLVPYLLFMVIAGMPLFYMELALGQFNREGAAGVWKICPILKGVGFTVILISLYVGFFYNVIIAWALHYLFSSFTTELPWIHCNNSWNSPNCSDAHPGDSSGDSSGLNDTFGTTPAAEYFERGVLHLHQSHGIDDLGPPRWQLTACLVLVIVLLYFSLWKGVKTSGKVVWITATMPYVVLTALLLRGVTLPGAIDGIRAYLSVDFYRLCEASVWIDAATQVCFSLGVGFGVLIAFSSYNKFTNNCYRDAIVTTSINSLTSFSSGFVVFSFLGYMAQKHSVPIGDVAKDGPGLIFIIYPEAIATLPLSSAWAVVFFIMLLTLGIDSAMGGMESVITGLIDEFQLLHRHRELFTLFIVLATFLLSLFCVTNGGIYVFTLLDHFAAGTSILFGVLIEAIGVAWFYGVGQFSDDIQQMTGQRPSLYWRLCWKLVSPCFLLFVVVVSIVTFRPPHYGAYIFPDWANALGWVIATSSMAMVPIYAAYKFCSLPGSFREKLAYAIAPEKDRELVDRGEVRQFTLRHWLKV

[4] = molecular target: Protein phosphatase 3 catalytic subunit alpha (Homo sapiens, UniProt Q08209); design: species or system Escherichia coli;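 further: inhibition of calcineurin (PP2B) enzyme activity, measured with DiFMUP as the substrate; in other assays of this panel Not Active means under 50% inhibition at 10 µM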
[5] = molecular target: Tyrosine-protein kinase Lck (Homo sapiens, UniProt P06239); experiment: DRUGMATRIX: Protein Tyrosine Kinase, LCK enzyme inhibition (substrate: Poly(Glu:Tyr)); assay type: cell-based, Insect cells; details: insect cells; Not Active = under 50% inhibition at 10 µM
Tyrosine-protein kinase Lck, sequence (P06239 whole entry): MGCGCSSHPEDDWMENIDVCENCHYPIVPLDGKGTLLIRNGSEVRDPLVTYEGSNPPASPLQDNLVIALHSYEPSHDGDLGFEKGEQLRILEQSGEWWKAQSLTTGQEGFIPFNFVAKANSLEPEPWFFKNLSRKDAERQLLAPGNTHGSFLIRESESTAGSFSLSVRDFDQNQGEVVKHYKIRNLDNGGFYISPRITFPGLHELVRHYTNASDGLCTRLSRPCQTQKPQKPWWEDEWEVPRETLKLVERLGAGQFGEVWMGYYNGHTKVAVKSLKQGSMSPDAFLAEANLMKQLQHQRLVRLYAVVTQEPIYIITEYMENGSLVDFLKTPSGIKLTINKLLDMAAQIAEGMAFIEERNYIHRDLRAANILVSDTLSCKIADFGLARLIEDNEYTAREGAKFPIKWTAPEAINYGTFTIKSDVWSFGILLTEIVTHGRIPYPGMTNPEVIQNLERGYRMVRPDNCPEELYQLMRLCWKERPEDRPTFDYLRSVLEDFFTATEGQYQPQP

[6] = molecular target: T2, 5-hydroxytryptamine receptor 1A (Rattus norvegicus, UniProt P19327); assay type: cell membranes, Membrane; details: cho-k1; further: in other assays of this panel Not Active means under 50% inhibition at 10 µM
T2 sequence (P19327 whole entry): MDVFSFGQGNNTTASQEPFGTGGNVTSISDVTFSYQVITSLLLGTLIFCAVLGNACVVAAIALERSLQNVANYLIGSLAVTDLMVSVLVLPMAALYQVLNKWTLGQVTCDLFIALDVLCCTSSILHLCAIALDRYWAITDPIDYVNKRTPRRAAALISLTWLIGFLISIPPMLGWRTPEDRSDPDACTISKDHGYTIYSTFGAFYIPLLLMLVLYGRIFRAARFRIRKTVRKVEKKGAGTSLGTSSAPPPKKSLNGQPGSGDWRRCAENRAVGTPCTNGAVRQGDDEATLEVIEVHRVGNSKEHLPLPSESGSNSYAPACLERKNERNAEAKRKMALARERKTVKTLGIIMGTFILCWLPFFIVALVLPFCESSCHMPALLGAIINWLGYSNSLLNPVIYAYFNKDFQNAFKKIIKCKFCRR

[7] = DRUGMATRIX: Potassium Channel [KATP] radioligand binding (ligand: [3H] Glyburide); assay type: cell membranes, Membrane; details: hit-t15; Not Active = under 50% inhibition at 10 µM

COc1ccccc1C(=O)N1CCC(Cc2ccccc2)CC1
Not Active: IC50 [1] | IC50 [2] | IC50 ([3]; cho-k1) | IC50 [4] | IC50 [5] | IC50 [6] | IC50 [7] | Ki [7]

Cc1ccccc1C(=O)N1CCC(Cc2ccccc2)CC1
Not Active: IC50 [1] | IC50 [2] | IC50 ([3]; cho-k1) | IC50 [4] | IC50 [5] | IC50 [6] | IC50 [7] | Ki [7]

O=C1CC[C@H](N2C(=O)c3ccccc3C2=O)C(=O)N1
Not Active: IC50 [1] | IC50 [2] | IC50 ([3]; cho-k1) | IC50 [4] | IC50 [5] | IC50 [6] | IC50 [7] | Ki [7]

N=C(Nc1ccccc1)Nc1ccccc1
Not Active: IC50 [1] | IC50 [2] | IC50 ([3]; cho-k1) | IC50 [4] | IC50 [5] | IC50 [6] | IC50 [7] | Ki [7]

C[C@@H](O)[C@H](CO)NC(=O)[C@@H]1CSSC[C@H](NC(=O)[C@H](N)Cc2ccccc2)C(=O)N[C@@H](Cc2ccccc2)C(=O)N[C@H](Cc2c[nH]c3ccccc23)C(=O)N[C@@H](CCCCN)C(=O)N[C@@H]([C@@H](C)O)C(=O)N1 (H-[dF]CF[dW]KTC-{Threoninol(2S,3R)}; disulfide 2-7)
Not Active: IC50 [1] | IC50 [2] | IC50 ([3]; cho-k1) | IC50 [4] | IC50 [5] | IC50 [6] | IC50 [7] | Ki [7]

S=C=Nc1cccc2ccccc12 [1-NAPHTHYLISOTHIOCYANATE]
Not Active: IC50 [1] | IC50 [2] | IC50 ([3]; cho-k1) | IC50 [4] | IC50 [5] | IC50 [6] | IC50 [7] | Ki [7]

C[C@](O)(CS(=O)(=O)c1ccc(F)cc1)C(=O)Nc1ccc(C#N)c(C(F)(F)F)c1 [(R)-BICALUTAMIDE]
Not Active: IC50 [1] | IC50 [2] | IC50 ([3]; cho-k1) | IC50 [4] | IC50 [5] | IC50 [6] | IC50 [7] | Ki [7]

CCCC(=O)Nc1ccc(OCC(O)CNC(C)C)c(C(C)=O)c1 (configuration not stated) [ACEBUTOLOL]
Not Active: IC50 [1] | IC50 [2] | IC50 ([3]; cho-k1) | IC50 [4] | IC50 [5] | IC50 [6] | IC50 [7] | Ki [7]

CC(=O)Nc1ccc(O)cc1 [ACETAMINOPHEN]
Not Active: IC50 [1] | IC50 [2] | IC50 ([3]; cho-k1) | IC50 [4] | IC50 [5] | IC50 [6] | IC50 [7] | Ki [7]

COc1cc2c(c3oc(=O)c4c(c13)CCC4=O)[C@@H]1C=CO[C@@H]1O2 [AFLATOXIN]
Not Active: IC50 [1] | Ki [1] | IC50 [2] | Ki [2] | IC50 ([3]; cho-k1) | Ki ([3]; cho-k1) | IC50 [4] | Ki [4] | IC50 [5] | Ki [5] | IC50 [6] | Ki [6] | IC50 [7] | Ki [7]

N=C(N)NC(=O)c1nc(Cl)c(N)nc1N [AMILORIDE]
Not Active: IC50 [1] | IC50 [2] | IC50 ([3]; cho-k1) | IC50 [4] | IC50 [5] | IC50 [6] | IC50 [7] | Ki [7]

Cc1cc(=O)n(-c2ccccc2)n1C [ANTIPYRINE]
Not Active: IC50 [1] | IC50 [2] | IC50 ([3]; cho-k1) | IC50 [4] | IC50 [5] | IC50 [6] | IC50 [7] | Ki [7]

CN1C(=O)COc2c(C(=O)NC3CN4CCC3CC4)cc(Cl)cc21 (configuration not stated) [AZASETRON]
Not Active: IC50 [1] | IC50 [2] | IC50 ([3]; cho-k1) | IC50 [4] | IC50 [5] | IC50 [6] | IC50 [7] | Ki [7]

C[C@H]1C[C@H]2[C@@H]3CCC4=CC(=O)C=C[C@]4(C)[C@@]3(Cl)[C@@H](O)C[C@]2(C)[C@@]1(O)C(=O)CO [BECLOMETHASONE]
Not Active: IC50 [1] | IC50 [2] | IC50 ([3]; cho-k1) | IC50 [4] | IC50 [5] | IC50 [6] | IC50 [7] | Ki [7]

CCOC(=O)[C@H](CCc1ccccc1)N[C@H]1CCc2ccccc2N(CC(=O)O)C1=O [BENAZEPRIL]
Not Active: IC50 [1] | IC50 [2] | IC50 ([3]; cho-k1) | IC50 [4] | IC50 [5] | IC50 [6] | IC50 [7] | Ki [7]

Nc1c(CC(=O)O)cccc1C(=O)c1ccc(Br)cc1 [BROMFENAC]
Not Active: IC50 [1] | IC50 [2] | IC50 ([3]; cho-k1) | IC50 [4] | IC50 [5] | IC50 [6] | IC50 [7] | Ki [7]

CCCCN1CCCCC1C(=O)Nc1c(C)cccc1C.Cl (configuration not stated) [BUPIVACAINE HYDROCHLORIDE]
Not Active: IC50 [1] | IC50 [2] | IC50 ([3]; cho-k1) | IC50 [4] | IC50 [5] | IC50 [6] | IC50 [7] | Ki [7]

O=C1CC2(CCCC2)CC(=O)N1CCCCN1CCN(c2ncccn2)CC1 [BUSPIRONE]
Not Active: IC50 [1] | IC50 [2] | IC50 ([3]; cho-k1) | IC50 [4] | IC50 [5] | IC50 [7] | Ki [7]

C[C@@]12C(=O)OC(=O)[C@]1(C)[C@H]1CC[C@@H]2O1 [CANTHARIDIN]
Not Active: IC50 [1] | IC50 [2] | IC50 ([3]; cho-k1) | IC50 [4] | IC50 [5] | IC50 [6] | IC50 [7] | Ki [7]

O=NN(CCCl)C(=O)NCCCl [CARMUSTINE]
Not Active: IC50 [1] | IC50 [2] | IC50 ([3]; cho-k1) | IC50 [4] | IC50 [5] | IC50 [6] | IC50 [7] | Ki [7]

CC1=C(C(=O)O)N2C(=O)[C@@H](NC(=O)[C@H](N)c3ccccc3)[C@H]2SC1 [CEPHALEXIN ANHYDROUS]
Not Active: IC50 [1] | IC50 [2] | IC50 ([3]; cho-k1) | IC50 [4] | IC50 [5] | IC50 [6] | IC50 [7] | Ki [7]

O=C(N[C@H](CO)[C@H](O)c1ccc([N+](=O)[O-])cc1)C(Cl)Cl [CHLORAMPHENICOL]
Not Active: IC50 [1] | IC50 [2] | IC50 ([3]; cho-k1) | IC50 [4] | IC50 [5] | IC50 [6] | IC50 [7] | Ki [7]

ClC(Cl)Cl [CHLOROFORM]
Not Active: IC50 [1] | IC50 [2] | IC50 ([3]; cho-k1) | IC50 [4] | IC50 [5] | IC50 [6] | IC50 [7] | Ki [7]

C=C1CC[C@H](O)C/C1=C/C=C1\CCC[C@]2(C)[C@@H]([C@H](C)CCCC(C)C)CC[C@@H]12 [CHOLECALCIFEROL]
Not Active: IC50 [1] | IC50 [2] | IC50 ([3]; cho-k1) | IC50 [4] | IC50 [5] | IC50 [6] | IC50 [7] | Ki [7]

C/C=C/C[C@@H](C)[C@@H](O)[C@H]1C(=O)N[C@@H](CC)C(=O)N(C)CC(=O)N(C)[C@@H](CC(C)C)C(=O)N[C@@H](C(C)C)C(=O)N(C)[C@@H](CC(C)C)C(=O)N[C@@H](C)C(=O)N[C@H](C)C(=O)N(C)[C@@H](CC(C)C)C(=O)N(C)[C@@H](CC(C)C)C(=O)N(C)[C@@H](C(C)C)C(=O)N1C [CYCLOSPORINE]
Not Active: IC50 [1] | IC50 [2] | IC50 ([3]; cho-k1) | IC50 [5] | IC50 [6] | IC50 [7] | Ki [7]

CN(C)c1ccc(C(=C2C=CC(=[N+](C)C)C=C2)c2ccc(N(C)C)cc2)cc1.[Cl-] [GENTIAN VIOLET]
3.23 µM: Ki ([3]; read-out: Ki)
4.07 µM: IC50 ([3]; read-out: IC50)
Not Active: IC50 [1] | IC50 [4] | IC50 [5] | IC50 [6] | IC50 [7] | Ki [7]
